Source: PMC10650714, “Double Attack to Oxidative Stress in Neurodegenerative Disorders: MAO-B and Nrf2 as Elected Targets” (Molecules, 2023)
Several values for one entry are separate records, joined by “and”; a condition that tells them apart may be missing. Equal entries are not always repeated. Where two headings read alike, the source gives them in different places.

Tests used:
recombinant hMAO-A = biological target: T1, recombinant hMAO-A (Homo sapiens, UniProt P21397); assay: hMAO-A activity assay (kynuramine, fluorimetric); format: biochemical
T1 construct: purchased Fluka-Sigma-Aldrich s.r.l; (Italy); host or cells: Baculovirus infected BT1 cells
T1 sequence (P21397 1-527): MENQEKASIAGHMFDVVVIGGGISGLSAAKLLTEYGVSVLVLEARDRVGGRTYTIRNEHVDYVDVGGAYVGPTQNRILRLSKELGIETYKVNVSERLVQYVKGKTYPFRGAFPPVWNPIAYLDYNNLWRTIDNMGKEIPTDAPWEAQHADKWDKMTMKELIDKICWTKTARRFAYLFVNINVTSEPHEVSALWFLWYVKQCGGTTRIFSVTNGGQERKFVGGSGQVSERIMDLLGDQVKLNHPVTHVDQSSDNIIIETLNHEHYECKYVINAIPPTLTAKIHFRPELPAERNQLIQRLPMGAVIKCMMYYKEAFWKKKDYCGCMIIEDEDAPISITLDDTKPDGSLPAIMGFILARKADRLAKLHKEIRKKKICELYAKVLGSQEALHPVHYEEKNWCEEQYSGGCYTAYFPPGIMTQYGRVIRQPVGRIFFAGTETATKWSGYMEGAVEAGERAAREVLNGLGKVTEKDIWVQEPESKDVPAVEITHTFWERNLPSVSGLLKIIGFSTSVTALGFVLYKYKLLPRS
Method: (§1) Human recombinant hMAO-A and hMAO-B expressed in Baculovirus infected BT1 cells (5 mg/mL) and horseradish peroxidases were purchased from Fluka-Sigma-Aldrich s.r.l. (Italy). A Cary Eclipse fluorimeter (Varian Inc., Palo Alto, CA, USA) was used for fluorescence measurements. […] At first, the peroxidase-coupled continuous assay that detect the H2O2 generation rate was considered. It uses the Amplex Red reagent as the fluorogenic substrate for horseradish peroxidase.
(§2) By applying this method, hMAO activity assays were performed in K/Pi 0.1 M, EDTA 1 mM (total volume: 200 μL; pH 7.4, T = 37 °C), in the presence and in absence of various concentrations of the different compounds (0.2–20 μM and 2–50 μM in the case of hMAO–B and hMAO-A, respectively).
(§3) MAOs stock solutions were diluted with assay buffer in the presence or absence of the tested compound to obtain a final concentration of 0.005 mg/mL for MAO-A and 0.010 mg/mL for MAO-B; then, kynuramine (10–300 μM final concentration) was added to the assay solution. After 45–60 min of incubation at 37 °C, the reaction was stopped by the addition of 2 M NaOH (80 μL) and 480 μL of distilled water. Kynuramine deaminated by MAO spontaneously cyclizes to provide 4-hydroxyquinoline, the amount of which was determined by the fluorescence intensity of the peak of its emission spectra (λexc = 330 nm and λem 330–530 nm). Then, the rate of reaction was calculated using a specific calibration curve (in the presence of the same amount of the tested compound) built with the standard 4-hydroxyquinoline.
(§4) Under these experimental conditions, the Michaelis–Menten equation for rate of reaction, can be simplified as follows: V ≈ (Vmax/KM) [E]0[S]0 [49]. In the presence of an inhibitor, one or both the kinetic parameters, KM and Vmax, might be affected by its presence, depending on the inhibition mechanism. In particular, in the presence of a reversible inhibitor, both the kinetic parameters could be affected, and the apparent kinetic parameter would then become: KM I = KM,0 (1 + [I]/Ki)/(1 + [I]/(αKi)), and VmaxI = Vmax0/(1 + [I]/(αKi)), where α is the factor indicating how much the dissociation constant of the enzyme-substrate-I complex is different from that of the enzyme–I complex (also named Ki). Consequently, the ratio of the initial rate of reaction in the absence (Vo) and in the presence (VI) of the tested compound (Vo/VI) can be simplified to the ratio of (Vmax/KM)o/(Vmax/KM)I ≈ (1 + [I]/Ki).
(§5) To study the mechanism of inhibition, the steady-state kinetic parameters (Vmax and Km) of MAO-A and MAO-B were determined by performing experiments at different substrate concentrations and in the absence and presence of different concentrations of the tested compound. Vmax and Km were calculated by fitting the Michaelis–Menten equation to the experimental data (initial rate of reactions vs. substrate concentrations), with Sigma Plot software, version 9.0 (Jandel Scientific, San Rafael, CA, USA).

recombinant hMAO-B = biological target: T2, recombinant hMAO-B (Homo sapiens, UniProt P27338); assay: hMAO-B activity assay (kynuramine, fluorimetric); format: biochemical; conditions: for SI (selectivity index): calculated as hMAO-A Ki/hMAO-B Ki; for mechanism of hMAO-B inhibition: double reciprocal plots / global fit
T2 construct: purchased Fluka-Sigma-Aldrich s.r.l; (Italy); host or cells: Baculovirus infected BT1 cells
T2 sequence (P27338 1-520): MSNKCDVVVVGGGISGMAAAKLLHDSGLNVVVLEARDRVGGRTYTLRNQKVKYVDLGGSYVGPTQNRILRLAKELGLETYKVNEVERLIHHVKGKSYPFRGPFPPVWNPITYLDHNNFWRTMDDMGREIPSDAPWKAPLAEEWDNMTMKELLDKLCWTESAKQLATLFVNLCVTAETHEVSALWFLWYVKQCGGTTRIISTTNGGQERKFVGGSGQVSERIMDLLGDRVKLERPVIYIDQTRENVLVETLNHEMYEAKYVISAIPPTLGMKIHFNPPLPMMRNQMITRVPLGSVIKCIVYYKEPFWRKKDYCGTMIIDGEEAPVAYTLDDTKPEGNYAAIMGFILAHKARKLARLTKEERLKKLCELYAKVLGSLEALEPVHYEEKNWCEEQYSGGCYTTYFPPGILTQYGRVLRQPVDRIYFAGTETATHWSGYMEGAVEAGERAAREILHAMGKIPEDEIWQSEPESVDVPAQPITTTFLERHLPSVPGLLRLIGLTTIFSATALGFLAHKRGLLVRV
Method: as §1, §2, §3, §4, §5

[1] = system: SH-SY5Y human neuroblastoma cells; assay: Cell viability, MTT assay; format: cell-based; conditions: 0.5 to 50 μM, 24 h
Method: To define the concentration range to use in the in vitro experimental settings, the cytotoxicity of compounds 1–5 was evaluated in SH-SY5Y human neuroblastoma cells, in comparison with CAPE, the reference compound for Nrf2 activation (Figure 5). Cells were treated with compounds at concentrations ranging from 0.5 to 50 μM for 24 h and cell viability was evaluated via MTT assay. All compounds were well tolerated at each concentration, resulting in no or very low reduction in cell viability.
MTT assay, based on the mitochondrial dehydrogenase activity that reduces 3-(4,5-dimethylthiazol-2-yl)-2,5-diphenyl-tetrazolium bromide (MTT, Sigma, St Louis, MO, USA) is one of the standard assays used to measure the cellular metabolic activity as an indicator of cell viability, proliferation and cytotoxicity in a quantitative colorimetric assay. At day 0, SH-SY5Y cells were plated at a density of 2.5 × 10^4 viable cells per well in 96-well plates. After treatment, according to the experimental setting, cells were exposed to an MTT solution in serum-free medium (1 mg/mL). Following 4 h of incubation with MTT and treatment with SDS for 24 h, cell viability reduction was quantified by using a Synergy HT multidetection microplate reader (Bio-Tek).

[2] = kynuramine [S] = 10 µM, pH 7.4, 37 °C, mean ± S.D., read-out: hMAO-A Ki

Compound | Ki (recombinant hMAO-A) | SI (selectivity index) (recombinant hMAO-B) | Ki (recombinant hMAO-B; hMAO-B Ki, kynuramine [S] = 10 µM, pH 7.4, 37 °C, mean ± S.D.) | cell viability / cytotoxicity [1] | Ki (recombinant hMAO-A; [2]) | mechanism of hMAO-B inhibition (recombinant hMAO-B) | Ki (recombinant hMAO-B; global fit analysis, mixed inhibition model, read-out: KEI (inhibition constant for the free enzyme)) | Ki (recombinant hMAO-B; kynuramine [S] = 10 µM, pH 7.4, 37 °C, mean ± S.D., read-out: hMAO-B Ki) | Ki (recombinant hMAO-B; read-out: hMAO-B Ki) | melting point
O=C(/C=C/c1ccc(O)c(O)c1)OCCc1ccccc1 [CAPE, caffeic acid phenethyl ester, reference compound] | 12000 ± 2000 nM | 6.7 | 1800 ± 200 nM |  |  |  |  |  |  | 
O=C(/C=C/c1ccc(O)c(O)c1)Oc1ccc(CC2SC(=O)NC2=O)cc1 (stereo not shown) [Compound 2, 4-((2,4-Dioxothiazolidin-5-yl)methyl)phenyl (E)-3-(3,4-Dihydroxyphenyl)acrylate] |  | 66 |  | not cytotoxic | 35000 ± 4000 nM | mixed inhibition | 450 ± 800 nM | 500 nM and 530 nM | 530 nM | 150 to 151 °C
CCc1ccc(CCOc2ccc(CC3SC(=O)NC3=O)cc2)nc1 (stereo not shown) [Pioglitazone, reference compound] |  |  |  |  | > 100000 nM | selective and competitive inhibitor |  |  |  | 
